Residues, ends and D or L forms follow the SMILES beside them. Groups on a side chain read outwards from the residue. *: point of attachment. Biotin = O=C1N[C@H]2[C@H](CS[C@H]2CCCCC(=O)*)N1; X1 = CN1C(=O)C[C@H](C(=O)*)[C@H]1c1cccnc1; PEG6 = NCCOCCOCCOCCOCCOCCOCCC(=O)O
What was measured:
[1] = tested on: EGFR on the A549 cell surface; test: Flow cytometry on A549 cells; assay type: cell-based, human
Protocol: A549 cells were seeded in a v-bottom 96-well plate (Corning) in the final concentration of 4×10^5 cells per each sample. […] After washing with the flow cytometry buffer, the cells were cultured with phycoerythrin (PE)-conjugated streptavidin (BD Biosciences Pharminogen, San Diego, Calif., USA) and FITC-conjugated anti-human IgG (Fc specific) antibody (Thermo Fisher Scientific Pierce) in the dark for 1 hr at 37° C. After additional washing with the same buffer, the cells were resuspended in 200 μL PBS, and analyzed through flow cytometry using FACS Canto II instrument equipped with a 488-nm laser (BD Bioscience, San Jose, Calif., USA). 10,000 cells per measurement were detected and data were analyzed with FlowJo software (TreeStar, Ashland, Oreg., USA).

[2] = mouse, in vivo
Protocol: Blood samples were collected from intra-orbital vein at 0, 1, 24, 48, 72, 96 and 168 hrs post-injection. The samples were left at the room temperature for 2 hrs until the blood coagulated. Subsequently, serum was acquired by centrifuging at 3500 rpm for 15 min at 4° C.
After washing with 0.05% PBST, HRP-conjugated streptavidin (Thermo Fisher Scientific Pierce) was added and cultured for 1 hr at 37° C. After washing, TMB was added to each well and the absorbance was measured at 650 nm.

A549 xenograft tumor = A549 xenograft tumor growth; assay type: in vivo, Balb/c-nude mice; conditions: intraperitoneally for five weeks, n=4/group
Protocol: Six-week-old female Balb/c-nude mice were subcutaneously injected with the A549 (1×10^7 cells) on the left and right flank of each mouse. When the tumor volume reached approximate 150 mm^3, all animals were randomly divided into three groups (n=4/group) and treated for five weeks. […] Then, three times dose of the drugs were injected thrice a week for the following three weeks. Palivizumab was used as an isotype control of the bispecific antibody. DMSO was used as a vehicle control of cotinine-duocarmycin. The tumor volume was measured using digital calipers twice a week in 32 days after injection. Tumor volume was calculated as length×(width)^2×0.5, where the length is the longest axis and the width is the distance perpendicular to the length. Systemic toxicity was evaluated by measuring body weight twice a week. Mice were sacrificed on the day 35 after injection and tumors were dissected and weighted.
To evaluate the in vivo efficacy of ERC6-complexed cotinine-duocarmycin, cetuximab-refractory A549 cells were grafted to mice (n=4/group). […] Drugs were administered to the mice twice a week for two weeks, and then thrice a week for three weeks.

A549 cells = test: Cell viability assay (Cell Titer-Glo, 72 hrs); assay type: cell-based, human; conditions: ATP content
Protocol: A549 cells were seeded in 50 μL RPMI-1640 medium in black-walled 96-well plates (4,000 cells per well) and allowed to adhere overnight at 37° C. in 5% CO2 and humidified atmosphere. […] The cotinine-duocarmycin and antibody dilutes in 50 μL medium were added to each well, and cultured for 72 hrs. After adding Cell Titer-Glo reagent (Promega Corp.) to each well, luminescence signals were measured using a microplate luminometer (PerkinElmer, Waltham, Mass., USA) according to the manufacturer's instructions. All experiments were conducted in triplicate. The relative cell viability was calculated by dividing by the control luminescence signal [% viability=(Test−Background)/(Control−Background)×100].

Compound | binding activity of cotinine-biotin to A549 cell (streptavidin-PE signal) ([1]; ERC6 present) | binding activity of cotinine-biotin to A549 cell (streptavidin-PE signal) ([1]; mixture with anti-cotinine IgG) | binding activity of cotinine-biotin to A549 cell (streptavidin-PE signal) ([1]; mixture with cetuximab) | half-life [2] [min] | inhibition of tumor growth (A549 xenograft tumor) | cytotoxic / anti-proliferative effect (relative cell viability) (A549 cells)
CN1C(=O)C[C@H](C(=O)NCCCC[C@H](NC(=O)[C@H](CO)NC(=O)CNC(=O)CNC(=O)CNC(=O)CNC(=O)[C@H](CCCCNC(=O)CCOCCOCCOCCOCCOCCOCCNC(=O)CCCC[C@@H]2SC[C@@H]3NC(=O)N[C@@H]32)NC(=O)[C@H](CO)NC(=O)CNC(=O)CNC(=O)CNC(=O)CNC(=O)[C@H]2CC(=O)N(C)[C@@H]2c2cccnc2)C(=O)O)[C@H]1c1cccnc1 [cotinine-biotin, cotinine-GGGGSK[(dPEG6)-biotin]GGGGSK-cotinine] (X1-GGGGSK([PEG6-Biotin])GGGGSK(X1)-OH) | showed the binding activity to the A549 cell | did not produce any significant signal | did not produce any significant signal | 33.4 |  | 
cotinine-[GSK(duocarmycin)]4K-cotinine [cotinine-duocarmycin] |  |  |  |  | could not be selectively delivered to the tumor site and inhibit the tumor growth | potent anti-proliferative effect
COC(=O)c1cc2c([nH]1)C(=O)C=C1N(C(=O)c3cc4cc(OC)c(OC)c(OC)c4[nH]3)C[C@H]3C[C@]123 [free duocarmycin, duocarmycin, reference compound] |  |  |  |  |  | stronger anti-tumor effect than the cotinine-duocarmycin
